For 4 molecules, IC50 results are on record in patent US20090105239A1, “2-PYRIDINE DERIVATIVES AS INHIBITORS OF NEUTROPHILE ELASTASE” (priority 2005, published 2009).

This assay deals with T1, Human Neutrophil Elastase (HNE) (Homo sapiens, UniProt P08246).
T1 construct: Human Neutrophil Elastase (HNE) purified from serum; purchased Calbiochem 324681; host or cells: purified from human serum (so in the source)
T1 sequence (P08246 30-247 limits assumed): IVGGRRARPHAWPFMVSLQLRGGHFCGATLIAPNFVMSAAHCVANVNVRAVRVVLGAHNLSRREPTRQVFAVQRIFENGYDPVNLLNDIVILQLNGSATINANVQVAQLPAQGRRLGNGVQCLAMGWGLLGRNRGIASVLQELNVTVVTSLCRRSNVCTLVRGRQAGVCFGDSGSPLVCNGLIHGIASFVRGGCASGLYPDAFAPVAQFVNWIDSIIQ
The assay can be described thus: Human Neutrophil Elastase Quenched-FRET Assay. Format: biochemical. Particulars: HNE purified from serum 1.7 nM, substrate MeOSuc-AAPV-AMC 100 μM, 30 minutes at room temperature; read-out: Inhibition of Human Neutrophil Elastase IC50. As for the experimental part:
Human Neutrophil Elastase Quenched-FRET Assay
HNE was stored in 50 mM sodium acetate (NaOAc), 200 mM sodium chloride (NaCl), pH 5.5 with added 30% glycerol at −20° C. […] The substrate was stored in dimethyl sulphoxide (DMSO) at −20° C. […] The assay buffer constitution was: 100 mM Tris(hydroxymethyl)aminomethane (TRIS) (pH 7.5) and 500 mM NaCl. The enzyme and the compounds were incubated at room temperature for 15 minutes. Then 30 μl substrate in assay buffer was added. The assay was incubated for 30 minutes at room temperature. […] The assay was then stopped by adding 60 μl stop solution (140 mM acetic acid, 200 mM sodium monochloroacetate, 60 mM sodium acetate, pH 4.3).
Consider `Cc1c([S+]([O-])c2ccc(C#N)cc2)cc(C(=O)NCC2(O)CC2)c(=O)n1-c1cccc(C(F)(F)F)c1` (stereo not shown) [Example 27, 5-[(4-Cyanophenyl)sulfinyl]-N-[(1-hydroxycyclopropyl)methyl]-6-methyl-2-oxo-1-[3-(trifluoromethyl)phenyl]-1,2-dihydropyridine-3-carboxamide], for which the IC50 is 0.009 µM.

Consider `Cc1c([S+]([O-])c2ccc(C#N)cc2)cc(C(=O)NCC(C)O)c(=O)n1-c1cccc(C(F)(F)F)c1` (stereo not shown) [Example 49, 5-[(4-Cyanophenyl)sulfinyl]-N-(2-hydroxypropyl)-6-methyl-2-oxo-1-[3-(trifluoromethyl)phenyl]-1,2-dihydropyridine-3-carboxamide], for which the IC50 was 0.004 µM.

Consider `CC(=O)Nc1ccc(S(=O)(=O)c2cc(C(=O)NCc3ccc(S(C)(=O)=O)cc3)c(=O)n(-c3cccc(C(F)(F)F)c3)c2C)cc1` [Example 59, 5-{[4-(Acetylamino)phenyl]sulfonyl}-6-methyl-N-[4-(methylsulfonyl)benzyl]-2-oxo-1-[3-(trifluoromethyl)phenyl]-1,2-dihydropyridine-3-carboxamide], for which the 50% inhibitory concentration (IC50) turned out to be 0.014 µM.

As for `Cc1c(S(=O)(=O)O)cc(C(=O)NCc2ccc(S(C)(=O)=O)cc2)c(=O)n1-c1cccc(C(F)(F)F)c1` [Example 86, 2-Methyl-5-({[4-(methylsulfonyl)benzyl]amino}carbonyl)-6-oxo-1-[3-(trifluoromethyl)phenyl]-1,6-dihydropyridine-3-sulfonic acid], the IC50 came out at 0.045 µM.
